Columns and labels:
[1] = target: T1, PSEN1 T147A–APH1A γ-secretase complex (Homo sapiens, UniProt P49768, T147A); assay: Aβ40 secretion, MEF cell pool restored with PSEN1 T147A–APH1A; type: cell-based; settings: decimal comma
T1 construct: expressed in transfected cells; host or cells: Psen1/2 double KO/Aph1ABC triple KO MEFs, pools without clonal selection
Protocol: (§1) We turned to experimental site–directed mutagenesis and selected a series of amino acids (Fig. 3) in the entrance channel for mutation to alanine. […] More importantly, they were all enzymatically active as shown by the secretion of Aβ40 in the supernatants of the cell cultures (Fig. 3B).
(§2) Conditional Psen1/2 double KO mice were crossed with conditional Aph1ABC triple KO mice ([29], [52], [58], [59]). At embryonic day 7.5, embryos were dissected and dissociated, and cells were plated in the presence of Dulbecco’s modified Eagle’s medium (DMEM)/F12 50% fetal calf serum (FCS) (Invitrogen). Primary MEFs were immortalized by transduction with LargeT antigen. Psen1/2 double KO/Aph1ABC triple KO MEFs were generated by transduction with a Cre-GFP–expressing adenoviral vector, and GFP-positive MEFs were sorted by fluorescence-activated cell sorting analysis. Psen1/2 Aph1ABC-deficient MEFs were maintained in DMEM/f12 10% FCS. To rescue γ-secretase expression, Psen1/2 double KO/Aph1ABC triple KO MEFs were transduced using Murine Stem Cell Virus retroviral vector system (pMSCV) viral vectors (Clontech) containing the human coding sequences of the different PSEN and APH1 homologs and the zeocin selection marker. An Internal Ribosome Entry Site sequence was cloned between the coding sequences for PSEN and APH1 to ensure co-expression of both proteins. Stable transfected cell lines were selected using 500-μg/ml zeocin (Invitrogen). Four different combinations were made: PSEN1 and APH1AL, PSEN1 and APH1B, PSEN2 and APH1AL, and PSEN2 and APH1B. These cell lines were transduced with pMSCV viral vectors (Clontech) expressing APP-C99-GFP-puromycin. […]
(§3) The number of plated cells and incubation times were determined in respect to linearity of Aβ peptide secretion, the dynamic range of Aβ peptide quantification in the medium, and sensitivity to dimethylsulfoxide (DMSO). […] The cell viability was assessed using the CellTiter-Glo Luminescent assay (Promega) that measures ATP production. […] We however measured five compounds at the Leuven site and noticed that absolute IC50 values were different (Fig. S2). […]

[2] = target: T2, PSEN1 T147A–APH1A γ-secretase complex (Homo sapiens, UniProt P49768+Q92542+Q96BI3+Q9NZ42, T147A); assay: as above; type: cell-based; settings: PSEN1 T147A (TM2)–APH1A cell pool; N = 3 to 4; mean (95% CI); decimal comma
T2 construct: expressed in transfected cells; host or cells: Psen1/2 double KO/Aph1ABC triple KO MEFs, pools without clonal selection
Protocol: as §1, §2, §3

| Compound | IC50 ([1]; PSEN1 T147A (TM2)–APH1A cell pool, N = 3 to 4, mean (95% CI)) [µM] | IC50 fold change to WT ([1]; PSEN1 T147A–APH1A cell pool) | IC50 [2] [µM] |
| --- | --- | --- | --- |
| C[C@H](NC(=O)Cc1cc(F)cc(F)c1)C(=O)N[C@H](C(=O)OC(C)(C)C)c1ccccc1 [DAPT] | 0.477 | 2,826 fold |  |
| O=S(=O)(c1ccc(Cl)cc1)N1[C@H]2CC[C@@H]([C@H]1c1ccc(C(F)(F)F)cc1)[C@@H](O)C2 [(+)-9b] |  |  | 0.852 |

Reference: paper PMC10318456, “Selective inhibitors of the PSEN1–gamma-secretase complex” (The Journal of Biological Chemistry, 2023)
